# Experimental data published in ChEMBL document CHEMBL5303711, “ECBD screening data for assay EOS300108” (2023).
# Structures can show the parent of a compound that is named as a salt. Calls of active or inactive are those of the source. How the calls were made is not given here.
# Assay: Cytotoxicity activity against human HepG2 cells assessed by CellTiter-Glo luminescent cell viability assay.
# Assay type: toxicity, cell-based
# Design: assay stage confirmatory assay, source tissue liver
# Details: HepG2 cells, read-out: IC50 relative
row,Compound,CC50
1,CCN1CCS/C1=C\C=C\C1=[N+](CC)CCS1,6.3 µM (active)
2,Cc1oc2c(c1C(=O)c1ccc(Cl)cc1)C(=O)C(=O)c1ccccc1-2,31.4 µM (inactive)
3,O=C(Nc1nnc(-c2ccccc2)o1)c1cccc(S(=O)(=O)N2CCOCC2)c1,8.9 µM (active)
4,COc1ccc(NC(=O)c2cc(-c3ccccc3O)no2)cc1,12.3 µM (active)
5,O=C1C=C(N(CCO)Cc2ccccc2)c2ccccc2C1=O,4.4 µM (active)
6,CN(C)/C=C/C=C/C=C/C1=[N+](C)c2ccccc2C1(C)C,10.3 µM (active)
7,CC(C)c1ccc(S(=O)(=O)/N=C2/C=C(Sc3nc[nH]n3)C(=O)c3ccccc32)cc1,5.8 µM (active)
8,O=S(=O)(Nc1cc(Sc2nc[nH]n2)c(O)c2ccccc12)c1ccc(Cl)cc1,5.7 µM (active)
9,COc1cccc2c1C(=O)c1c(O)c3c(c(O)c1C2=O)CC(O)(C(=O)CO)CC3OC1CC(N)C(O)C(C)O1 (centres undefined),0.4 µM (active)
10,C=C(C)[C@@H]1Cc2c(ccc3c2O[C@H]2COc4cc(OC)c(OC)cc4[C@H]2C3=O)O1,0.3 µM (active)
11,Cc1ccc(S(=O)(=O)/N=C2\C=C(Sc3nc[nH]n3)C(=O)c3ccccc32)cc1,4.8 µM (active)
12,Cc1cc(OCC(=O)Nc2nc(-c3ccccn3)cs2)no1,8.8 µM (active)
13,CCN(C)C[C@H]1CCN(Cc2ccc(OCc3ccccc3F)nc2)C1,6.7 µM (active)
14,Cc1ccc(-c2nc(C#N)c(S(=O)(=O)N(C)CCO)o2)cc1,7.3 µM (active)
15,F[C@H](c1nc(-c2ccc(OCc3cccnc3)cc2)no1)C1CNC1,8.2 µM (active)
16,C#CC(=O)NCCNc1nc(C)nc(C)c1Br,0.8 µM (active)
17,CCc1cccc2c(C3CCNCC3)c[nH]c12,11.4 µM (active)
18,CCNc1cc2[o+]c3cc(NCC)c(C)cc3c(-c3ccccc3C(=O)OCC)c2cc1C,1 µM (active)
19,CCN(CC)Cc1ccccc1CNC(=O)N(CC)C[C@H]1COc2ccccc2O1,10.8 µM (active)
20,O=C(Nc1ncccc1O)c1ccc(OCc2cn3ccccc3n2)cc1,6.7 µM (active)
21,COc1ccc(OC)c(C(=O)Nc2nc3ccccc3[nH]2)c1,4.7 µM (active)
22,CCCCOc1ccc(C(=O)N2CCN(S(=O)(=O)c3ccc4c(c3)OCCCO4)CC2)cc1,3.2 µM (inactive)
23,Cc1occc1C(=O)Nc1ccc(N2CCCC2)cn1,8.8 µM (active)

row,Compound,CC50
1,Cc1cc(N)n(S(=O)(=O)c2oc(-c3ccccc3)nc2C#N)n1,7.6 µM (active)
2,Cc1ccccc1-c1nc(C#N)c(NCC(C)N2CCN(C)CC2)o1 (centres undefined),10.8 µM (active)
3,COc1ccc2nc(NC(=O)CN3C(=O)c4ccccc4S3(=O)=O)sc2c1,14.8 µM (inactive)
4,N#Cc1cc(NC[C@H](O)c2ccco2)nc2ccc(Cl)cc12,1.3 µM (active)
5,Fc1ccc2[nH]c(CCNc3ncc(Cl)cn3)nc2c1,6.7 µM (active)
6,O=C1COc2cc(C(=O)Nc3nc(-c4ccccn4)cs3)ccc2N1,1.5 µM (active)
7,CCC1(CC)CCN(c2ncnc3[nH]ccc23)CC1,8.3 µM (active)
8,CC(C)(C)n1c(NC(=O)c2ccncc2)nc2ccccc21,15.2 µM (active)
9,CC1(C)[C@H]2CC=C(CCNC(=O)C3CCN(C(=O)c4ccccn4)CC3)[C@@H]1C2,4.5 µM (inactive)
10,CC(C)c1ccc(CN2CCN(C(=O)CN(C)C(=O)c3ccco3)CC2)cc1,4.4 µM (active)
11,COc1ccc(CCN2Cc3ccc(N)cc3C2)cc1,20.2 µM (inactive)
12,CCc1ccc(NC(=O)c2nc(S(C)(=O)=O)ncc2Br)cc1,3 µM (active)
13,COCC1CCN(Cc2ccc(C(C)C)cc(O)c2=O)CC1,11.8 µM (active)
14,COc1ccc(Cl)cc1CNCC1CCN(C[C@H](C)O)CC1,10.2 µM (active)
15,CC(C)c1ccc(CNCCN2CCCCC2CO)cc1 (centres undefined),4.3 µM (active)
16,CCN(CC)c1ccc(/C=C/C2=[N+](C)c3ccccc3C2(C)C)cc1,1.2 µM (active)
17,Cc1nn(-c2cccc(Cl)c2)nc1C(=O)NC1CCN(C)CC1,9.4 µM (active)
18,CC1CCC/C=C\C2CC(O)CC2C(O)/C=C\C(=O)O1 (centres undefined),< 0.1 µM (active)
19,COc1c(Br)cc(Cl)cc1S(=O)(=O)N1CCC[C@H](N)C1,16.1 µM (inactive)
20,O=C(Nc1cccnc1)N1CCN(c2ccc(S(=O)(=O)N3CCOCC3)cn2)CC1,2.5 µM (active)
21,Cc1ccc(-c2cccc(CN3[C@@H]4CC[C@H]3[C@H]3CNC[C@H]34)c2)o1,8.8 µM (active)
22,Cc1cccc(OC[C@@H](O)CN2CCC(C(=O)N3CCc4ccccc43)CC2)c1,11.3 µM (active)
23,O=C(Cn1ncc(Cl)c(Cl)c1=O)N1CCC[C@H]1c1ccc2c(c1)OCCCO2,7.1 µM (active)

row,Compound,CC50
1,O=C(NCCc1ccco1)c1cc2ccccc2cc1O,8.5 µM (active)
2,CCN(CC)c1cc(C)nc(Nc2ccc(NC(=O)C(C)C)cc2)n1,6.8 µM (active)
3,CCn1c(SCc2cc(=O)n3ccsc3n2)nc2sc(C)c(C)c2c1=O,20.2 µM (inactive)
4,Cc1cc(N2CCN([C@@H](C)C(=O)Nc3ccc(C#N)cc3)CC2)nc(C(C)C)n1,11.2 µM (active)
5,C[C@@H](NC1CCN(c2ccc(F)c(F)c2)CC1)[C@@H](O)c1ccc(O)cc1,14.6 µM (active)
6,Cc1cc(C)cc(OC[C@@H](O)CN2CCC(C(=O)Nc3ccccc3)CC2)c1,12.1 µM (active)
7,N[C@@H](Cc1ccccc1)C(=O)N1C/C(=C\c2ccc(Cl)c(Cl)c2)C(=O)/C(=C/c2ccc(Cl)c(Cl)c2)C1,7.9 µM (active)
8,CCN(C(=O)c1ccc(-n2ccnc2)nc1)S(=O)(=O)c1ccc(C)cc1,11.7 µM (inactive)
9,COc1ncccc1-c1csc(-c2ccoc2)n1,1 µM (active)
10,Clc1cccc(N2CCN(C[C@H]3CCC4(CNC4)O3)CC2)c1,7 µM (active)
11,O=C(Nc1ccc(Cn2cnc3ccccc32)cc1)c1ccc(=O)[nH]n1,9.7 µM (inactive)
12,CC[n+]1c(/C=C2/C=CN(C)c3ccccc32)ccc2ccccc21,2.3 µM (active)
13,CCOc1ccc(S(=O)(=O)N(C)c2ccccc2)cc1,7.5 µM (inactive)
14,CN[C@H]1CCCN(C(=O)c2ccc(CN)cc2)C1,14.3 µM (inactive)
15,CCOC(=O)CNS(=O)(=O)c1cc(-c2nnc(Nc3cccc(O)c3)c3ccccc23)ccc1C,4.1 µM (active)
16,Cn1ncnc2c(=O)n(C)c(=O)nc1-2,0.2 µM (active)
17,CCN(CC)C(=S)SSC(=S)N(CC)CC,0.3 µM (inactive)
18,O=C(c1ccc(F)c(F)c1Nc1ccc(I)cc1F)N1CC(O)(C2CCCCN2)C1 (racemic),< 0.1 µM (active)
19,O=C1Nc2cc(Br)ccc2/C1=C1/Nc2ccccc2/C1=N\O [6BIO],26.5 µM (inactive)
20,CCc1c2c(nc3ccc(O)cc13)-c1cc3c(c(=O)n1C2)COC(=O)[C@]3(O)CC [7-ETHYL-10-HYDROXYCAMPTOTHECIN],0.2 µM (active)
21,Nc1nc2nn[nH]c2c(=O)[nH]1 [8-AZAGUANINE],7.5 µM (active)
22,CN(C)CC#Cc1ccc(OCCCc2sc(N3CCc4cccc(C(=O)Nc5nc6ccccc6s5)c4C3)nc2C(=O)O)c(F)c1 [A-1155463],2.3 µM (active)
23,CN(C)CC[C@H](CSc1ccccc1)Nc1ccc(S(=O)(=O)NC(=O)c2ccc(N3CCN(Cc4ccccc4-c4ccc(Cl)cc4)CC3)cc2)cc1[N+](=O)[O-] [ABT 737],13.2 µM (active)

row,Compound,CC50
1,C=CCn1c(=O)c2cnc(Nc3ccc(N4CCN(C)CC4)cc3)nc2n1-c1cccc(C(C)(C)O)n1 [ADAVOSERTIB],4.5 µM (active)
2,CCN1CCN(Cc2ccc(-c3cc4c(N[C@H](C)c5ccccc5)ncnc4[nH]3)cc2)CC1 [AEE-788],4.1 µM (active)
3,CN(C)C/C=C/C(=O)Nc1cc2c(Nc3ccc(F)c(Cl)c3)ncnc2cc1O[C@H]1CCOC1 [AFATINIB DIMALEATE],2.3 µM (active)
4,CC/C(=C(\c1ccc(O)cc1)c1ccc(OCCN(C)C)cc1)c1ccccc1 [AFIMOXIFENE],3.9 µM (active)
5,CCc1cc2c(cc1N1CCC(N3CCOCC3)CC1)C(C)(C)c1[nH]c3cc(C#N)ccc3c1C2=O [ALECTINIB],18.9 µM (inactive)
6,CNC(=O)[C@@H](c1ccccc1)N1CCc2cc(OC)c(OC)cc2[C@@H]1CCc1ccc(C(F)(F)F)cc1 [ALMOREXANT],20.4 µM (inactive)
7,Cc1nc(NC(=O)N2CCC[C@H]2C(N)=O)sc1-c1ccnc(C(C)(C)C(F)(F)F)c1 [ALPELISIB],6.1 µM (active)
8,O=C(Nc1cc(Oc2cc(F)c(NC(=O)C3(C(=O)Nc4ccc(F)cc4)CC3)cc2F)ccn1)C1CC1 [ALTIRATINIB],0.2 µM (active)
9,Cc1csc(-c2nnc(Nc3ccc(Oc4ncccc4-c4ccnc(N)n4)cc3)c3ccccc23)c1 [AMG-900],25.4 µM (inactive)
10,Nc1nc(N)c2nc(CNc3ccc(C(=O)N[C@@H](CCC(=O)O)C(=O)O)cc3)cnc2n1 [AMINOPTERIN],0.1 µM (active)
11,CCN(CC)Cc1cc(Nc2ccnc3cc(Cl)ccc23)ccc1O [AMODIAQUINE HYDROCHLORIDE],3 µM (active)
12,COc1cc(NS(C)(=O)=O)ccc1Nc1c2ccccc2nc2ccccc12 [AMSACRINE],2.7 µM (active)
13,COc1ccc(C[C@H]2NC[C@H](O)[C@H]2OC(C)=O)cc1 [ANISOMYCIN],0.3 µM (active)
14,Cc1c(CN2CCN(C(=O)[C@H](C)O)CC2)sc2c(N3CCOCC3)nc(-c3cnc(N)nc3)nc12 [APITOLISIB],1.5 µM (active)
15,C[C@@H](O[C@H]1OCCN(Cc2n[nH]c(=O)[nH]2)[C@H]1c1ccc(F)cc1)c1cc(C(F)(F)F)cc(C(F)(F)F)c1 [APREPITANT],14.8 µM (inactive)
16,NCC(=O)Nc1ccc(-n2nc(C(F)(F)F)cc2-c2ccc3c(ccc4ccccc43)c2)cc1 [AR-12],50 µM (inactive)
17,COc1cc(C[C@H]2C(=O)OC[C@@H]2Cc2ccc(OC)c(OC)c2)ccc1O [ARCTIGENIN],2.6 µM (active)
18,O=C1CCc2ccc(OCCCCN3CCN(c4cccc(Cl)c4Cl)CC3)cc2N1 [ARIPIPRAZOLE],25.6 µM (inactive)
19,COc1ccc(CCN2CCC(Nc3nc4ccccc4n3Cc3ccc(F)cc3)CC2)cc1 [ASTEMIZOLE],1.5 µM (active)
20,O=C(NC1CCNCC1)c1n[nH]cc1NC(=O)c1c(Cl)cccc1Cl [AT-7519],0.2 µM (active)
